Laboratory results published in patent US11014911B2, “CDK2 inhibitors” (Pfizer Inc., priority 2019, dated 2021).
pKi: −log10 of the molar value.

Key:
[1] = target: CDK2/Cyclin E1 full length (Homo sapiens (Human), UniProt P24941); experiment: CDK2/Cyclin E1 full length mobility shift assay; format: biochemical
GSK3β (H350L) = GSK3β (H350L) (Homo sapiens (Human), UniProt P49841); experiment: biochemical; settings: GSK3β Ki (nM)
GSK3β (H350L), sequence (P49841 whole entry, stated change not applied): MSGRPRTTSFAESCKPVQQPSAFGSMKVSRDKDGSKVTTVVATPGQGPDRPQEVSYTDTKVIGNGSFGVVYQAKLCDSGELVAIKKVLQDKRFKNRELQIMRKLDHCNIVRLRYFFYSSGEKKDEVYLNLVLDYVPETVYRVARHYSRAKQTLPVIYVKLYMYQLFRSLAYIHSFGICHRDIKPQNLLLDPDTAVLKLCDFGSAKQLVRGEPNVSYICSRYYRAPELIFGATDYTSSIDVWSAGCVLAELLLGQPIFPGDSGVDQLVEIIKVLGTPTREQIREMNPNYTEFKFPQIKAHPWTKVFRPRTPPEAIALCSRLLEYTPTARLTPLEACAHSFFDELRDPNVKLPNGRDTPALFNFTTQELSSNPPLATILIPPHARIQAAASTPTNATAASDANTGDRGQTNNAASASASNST
Experimental: The assay was initiated with the addition of ATP, following 15 minutes pre-incubation of enzyme and inhibitor at room temperature in the reaction mixture. The reaction was stopped after 30 minutes at room temperature by the addition of 50 μL of 80 mM EDTA.

SMILES	pKi [1]	Ki (GSK3β (H350L)) [nM]
COCc1cc(C(=O)Nc2cc([C@H]3CC[C@@H](OC(=O)NC(C)CC(F)(F)F)C3)[nH]n2)n(C)n1 (single isomer, unassigned) [Example 9]	8.94	> 95.3
COc1ccc(CC(=O)Nc2cc([C@H]3CC[C@@H](OC(=O)NC4(C)CCOC4)C3)[nH]n2)cn1 (single isomer, unassigned) [Example 122]	9.66	12.7
Cc1cc(CC(=O)Nc2cc([C@H]3CC[C@@H](OC(=O)NC(C)CC(F)(F)F)C3)[nH]n2)on1 (single isomer, unassigned) [Example 71]	9.00	33.8
CCC(CO)CNC(=O)O[C@@H]1CC[C@H](c2cc(NC(=O)Cc3ccc(OC)nc3)n[nH]2)C1 (single isomer, unassigned) [Example 532]	9.05	2.97
COc1cc(CC(=O)Nc2cc([C@H]3CC[C@@H](OC(=O)N[C@@H](C)[C@H](C)F)C3)[nH]n2)ccn1 (single isomer, unassigned) [Example 385, (1R,3S)-3-(3-{[(2-methoxypyridin-4-yl)acetyl]amino}-1H-pyrazol-5-yl)cyclopentyl [(2S*,3S*)-3-fluorobutan-2-yl]carbamate]	9.28	25.9
CC(CC(F)(F)F)N(C)C(=O)O[C@@H]1CC[C@H](c2cc(NC(=O)Cc3cnn(C)c3)n[nH]2)C1 (single isomer, unassigned) [Example 414]	9.38	3.44
COc1cnc(CC(=O)Nc2cc([C@H]3CC[C@@H](OC(=O)NC4(C)CC4)C3)[nH]n2)cn1 [Example 6, (1R,3S)-3-(3-{[(5-methoxypyrazin-2-yl)acetyl]amino}-1H-pyrazol-5-yl)cyclopentyl (1-methylcyclopropyl)carbamate]	9.42	32.3
CCC1(C)CCN1C(=O)O[C@@H]1CC[C@H](c2cc(NC(=O)Cc3cc(C)no3)n[nH]2)C1 (single isomer, unassigned) [Example 604]	10.10	5
Cc1cnc(CC(=O)Nc2cc([C@H]3CC[C@@H](OC(=O)NC4(C)CCOC4)C3)[nH]n2)o1 (single isomer, unassigned) [Example 477]	8.98	59.2
CCC(NC(=O)O[C@@H]1CC[C@H](c2cc(NC(=O)Cc3cc(C)no3)n[nH]2)C1)C(F)(F)F (single isomer, unassigned) [Example 397]	8.73	155
COc1cc(CC(=O)Nc2cc([C@H]3CC[C@@H](OC(=O)N4C[C@@H](C#N)[C@@H]4C)C3)[nH]n2)ccn1 (single isomer, unassigned) [Example 155]	9.89	1.63
Cc1cnc(CC(=O)Nc2cc([C@H]3CC[C@@H](OC(=O)NC(C)CC(F)(F)F)C3)[nH]n2)o1 (single isomer, unassigned) [Example 81]	8.83	32.9
CCC1CCN1C(=O)O[C@@H]1CC[C@H](c2cc(NC(=O)Cc3cc(C)no3)n[nH]2)C1 (single isomer, unassigned) [Example 597]	9.27	20.9
CC(CC(F)(F)F)NC(=O)O[C@@H]1CC[C@H](c2cc(NC(=O)Cc3cnn(C(C)C)c3)n[nH]2)C1 (single isomer, unassigned) [Example 408]	9.54	17.9
COc1cc(CC(=O)Nc2cc([C@H]3CC[C@@H](OC(=O)NC(C)CC(F)(F)F)C3)[nH]n2)ccn1 (single isomer, unassigned) [Example 78]	9.82	8.9
CCCNC(=O)O[C@H]1CC[C@@H](c2cc(NC(=O)C3COc4ccccc43)n[nH]2)C1 (single isomer, unassigned) [Example 24]	9.59	20.6

SMILES	pKi [1]	Ki (GSK3β (H350L)) [nM]
COc1cc(CC(=O)Nc2cc([C@H]3CC[C@@H](OC(=O)NC(C)CC(F)(F)F)C3)[nH]n2)ccn1 (single isomer, unassigned) [Example 77]	9.41	19.7
Cc1ccc(CC(=O)Nc2cc([C@H]3CC[C@@H](OC(=O)NC(C)CC(F)(F)F)C3)[nH]n2)cn1 (single isomer, unassigned) [Example 76]	10.00	4.96
CC(CC(F)(F)F)NC(=O)O[C@@H]1CC[C@H](c2cc(NC(=O)Cc3cnco3)n[nH]2)C1 (single isomer, unassigned) [Example 83]	9.16	33.3
Cc1cnc(CC(=O)Nc2cc([C@@H]3CC[C@H](OC(=O)NC4(C)CCOC4)C3)[nH]n2)o1 (single isomer, unassigned) [Example 476]	9.35	30.9
CCC(CO)CNC(=O)O[C@@H]1CC[C@H](c2cc(NC(=O)Cc3cnc(C)s3)n[nH]2)C1 (single isomer, unassigned) [Example 529]	9.14	3.92
COc1ccc(CC(=O)Nc2cc([C@H]3CC[C@@H](OC(=O)N4CCC4C)C3)[nH]n2)cn1 (single isomer, unassigned) [Example 151]	9.82	3.89
CC[C@H](C)NC(=O)O[C@@H]1CC[C@H](c2cc(NC(=O)Cc3ccno3)n[nH]2)C1 [Example 16, (1R,3S)-3-{3-[(1,2-oxazol-5-ylacetyl)amino]-1H-pyrazol-5-yl}cyclopentyl (2S)-butan-2-ylcarbamate]	9.43	51.7
CC(CC(F)(F)F)NC(=O)O[C@@H]1CC[C@H](c2cc(NC(=O)Cc3ccn(C)n3)n[nH]2)C1 (single isomer, unassigned) [Example 66]	9.77	17.9
C[C@H](F)[C@H](C)NC(=O)O[C@@H]1CC[C@H](c2cc(NC(=O)Cc3cnn(C)c3)n[nH]2)C1 (single isomer, unassigned) [Example 382, (1R,3S)-3-(3-{[(1-methyl-1H-pyrazol-4-yl)acetyl]amino}-1H-pyrazol-5-yl)cyclopentyl [(2S*,3S*)-3-fluorobutan-2-yl]carbamate]	9.11	74.2
CCC(CO)CNC(=O)O[C@@H]1CC[C@H](c2cc(NC(=O)Cc3cc(C)no3)n[nH]2)C1 (single isomer, unassigned) [Example 525]	8.91	7.01
CC(CC(F)F)NC(=O)O[C@@H]1CC[C@H](c2cc(NC(=O)Cc3cnn(C)c3)n[nH]2)C1 (single isomer, unassigned) [Example 386]	9.18	45.9
COc1ccc(CC(=O)Nc2cc([C@H]3CC[C@@H](OC(=O)NC4(C)CCOC4)C3)[nH]n2)cn1 (single isomer, unassigned) [Example 123]	9.89	8.87
O=C(Cc1cc(F)cc(F)c1)Nc1cc([C@@H]2CC[C@H](OC(=O)NCC3CCCOC3)C2)[nH]n1 (single isomer, unassigned) [Example 515]	8.90	11.3
COc1ccc(CC(=O)Nc2cc([C@H]3CC[C@@H](OC(=O)N4C[C@@H](C#N)[C@@H]4C)C3)[nH]n2)cn1 (single isomer, unassigned) [Example 158]	9.77	0.78
CC(CC(F)(F)F)N(C)C(=O)O[C@@H]1CC[C@H](c2cc(NC(=O)Cc3cnn(C)c3)n[nH]2)C1 (single isomer, unassigned) [Example 413]	9.36	14.7
Cc1ncc(CC(=O)Nc2cc([C@H]3CC[C@@H](OC(=O)NC4(C)CCOC4)C3)[nH]n2)s1 (single isomer, unassigned) [Example 481]	9.28	44.6
